Data from US11384060B2, “Amide compounds and use thereof” (ALPHALA CO., LTD., priority 2017, dated 2022).
Read-outs that look alike come from different tables or passages of the source.

Columns and labels:
[1] = target: T1, glucagon receptor (GCGR) (Homo sapiens, UniProt P47871); assay: I125-glucagon binding assay (competition, GCGR membrane fractions)
T1 construct: expressed in transfected cells; host or cells: CHO-K1 cells overexpressing GCGR (membrane fractions)
Outline: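 Membranes from CHO-K1 cells overexpressing GCGR, 7.5 μg/well in 50 mM Tris pH 7.4 with 0.5% BSA, were preincubated 5 min with serially diluted compounds, then given 0.0625 nM final I^125-glucagon for 30 min at 25° C. Bound label was filtered on PEI-coated GF/B and counted; IC50 by non-linear regression.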

[2] = target: T2, glucagon receptor (GCGR) overexpressed CHO-K1 cells or human primary hepatocytes (Homo sapiens, UniProt P47871); assay: Glucagon cAMP inhibition assay (Cisbio cAMP Dynamic 2 HTRF); assay type: cell-based
T2 construct: expressed in transfected cells; host or cells: GCGR overexpressed CHO-K1 cells or human primary hepatocytes (endogenous receptor)
Outline: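 GCGR-overexpressing CHO-K1 cells or human primary hepatocytes in HBSS with 0.1% BSA and 800 nM IBMX, pre-incubated 30 min with serially diluted compounds (1% DMSO final), then stimulated 30 min at room temperature with glucagon at its EC50. cAMP measured by HTRF after 60 min lysis; IC50 by non-linear regression.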

[3] = competition with I125-glucagon 0.0625 nM, membrane fractions of GCGR overexpressed CHO-K1 cells
[4] = inhibition of glucagon (EC50 concentration) induced cAMP production

T2 sequence (P47871 26-477): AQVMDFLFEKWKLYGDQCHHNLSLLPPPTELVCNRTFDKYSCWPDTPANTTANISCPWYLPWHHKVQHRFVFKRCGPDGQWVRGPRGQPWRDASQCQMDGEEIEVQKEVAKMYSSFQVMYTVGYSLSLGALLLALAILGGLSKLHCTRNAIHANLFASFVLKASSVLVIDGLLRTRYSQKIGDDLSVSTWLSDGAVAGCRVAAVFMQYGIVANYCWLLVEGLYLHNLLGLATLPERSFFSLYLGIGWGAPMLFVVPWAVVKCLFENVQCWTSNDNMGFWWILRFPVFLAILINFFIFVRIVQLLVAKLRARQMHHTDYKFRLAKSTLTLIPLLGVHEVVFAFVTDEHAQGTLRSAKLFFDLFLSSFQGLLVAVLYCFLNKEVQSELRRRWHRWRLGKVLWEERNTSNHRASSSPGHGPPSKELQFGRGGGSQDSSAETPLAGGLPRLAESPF
T1 sequence (P47871 26-477): as above

Row | SMILES | IC50 [1] | IC50 cAMP [2] | IC50 [1, 3] | IC50 cAMP [2, 4]
1 | CC(C)C[C@@H](Nc1ccc(C(=O)NCCC(=O)O)cc1)C(=O)Nc1ccc(-c2cc3ccccc3o2)cc1 [Compound 24-2, (R)-3-(4-((1-((4-(benzofuran-2-yl)phenyl)amino)-4-methyl-1-oxopentan-2-yl)amino)benzamido)propanoic Acid] | 311 nM | 598.6 nM | – | –
2 | CCOC(=O)CCNC(=O)c1ccc(N[C@@H](Cc2ccc(F)cc2)C(=O)Nc2ccc(-c3cc4ccccc4o3)cc2)cc1 [Compound 23-9, Ethyl (S)-3-(4-((1-((4-(benzofuran-2-yl)phenyl)amino)-3-(4-fluorophenyl)-1-oxopropan-2-yl)amino)benzamido)propanoate] | 1940 nM | 2600 nM | – | –
3 | CC(C)(C)c1ccc(NC(=O)[C@H](Cc2ccc3ccccc3c2)Nc2ccc(C(=O)NCCC(=O)O)cc2)cc1 [Compound 23-20, (S)-3-(4-((1-((4-(tert-butyl)phenyl)amino)-3-(naphthalen-2-yl)-1-oxopropan-2-yl)amino)benzamido)propanoic Acid] | 724 nM | 4700 nM | – | –
4 | CC(C)[C@@H](COc1ccc(-c2ccc(C(F)(F)F)cc2Cl)c(F)c1)Nc1ccc(C(=O)NCCC(=O)O)cc1 [Compound 8-5, (S)-3-(4-((1-((2′-chloro-2-fluoro-4′-(trifluoromethyl)-[1,1′-biphenyl]-4-yl)oxy)-3-methylbutan-2-yl)amino)benzamido)propanoic Acid] | – | – | 75 nM | 85 nM
5 | CCCC[C@@H](COc1ccc(-c2ccc(C(F)(F)F)cc2)c(OC)c1)Nc1ccc(C(=O)NCCC(=O)O)cc1 [Compound 13-11, (S)-3-(4-((1-((2-methoxy-4′-(trifluoromethyl)-[, 1′-biphenyl]-4-yl)oxy)hexan-2-yl)amino)benzamido)propanoic Acid] | – | – | 47 nM | 118 nM
